The record followed here is ChEMBL document CHEMBL4152251, “Lactam hybrid analogues of solonamide B and autoinducing peptides as potent S. aureus AgrC antagonists” (Eur J Med Chem, 2018).

Calls of active or inactive are those of the source. The rule behind the calls is not given here. Bridge positions count the residues as written; N and C are the ends. Square brackets hold non-standard residues; d marks the D form. Peptide text beside a SMILES is read from it. * marks the point of attachment. Decanoyl(3,6,9-trioxa) = COCCOCCOCC(=O)*; Decanoyl = CCCCCCCCCC(=O)*; Heptanoyl = CCCCCCC(=O)*; Orn = NCCC[C@H](N)C(=O)O; Dab = NCC[C@H](N)C(=O)O; Dap = NC[C@H](N)C(=O)O

For assay [1], the target named is T1, Receptor-histidine kinase AgrC (Staphylococcus aureus) (UniProt O07911).
T1 sequence (whole entry): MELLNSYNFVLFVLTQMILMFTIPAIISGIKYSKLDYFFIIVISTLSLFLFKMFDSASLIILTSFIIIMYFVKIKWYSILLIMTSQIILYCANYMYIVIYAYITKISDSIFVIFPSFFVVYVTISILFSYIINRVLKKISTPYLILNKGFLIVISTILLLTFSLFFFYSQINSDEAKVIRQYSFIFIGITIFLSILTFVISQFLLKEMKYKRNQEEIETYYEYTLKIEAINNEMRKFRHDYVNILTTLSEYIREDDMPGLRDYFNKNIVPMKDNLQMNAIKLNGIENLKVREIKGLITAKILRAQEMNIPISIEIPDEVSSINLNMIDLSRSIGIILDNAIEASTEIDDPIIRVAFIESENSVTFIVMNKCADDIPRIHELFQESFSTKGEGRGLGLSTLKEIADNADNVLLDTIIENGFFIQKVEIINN
Description: Inhibition of AIP-stimulated quorum sensing system AgrC activation in Staphylococcus aureus RN10829 harboring P3:blaZ fusion assessed as reduction in beta-lactamse activity at 5 ug/ml preincubated with organism followed by AIP addition measured after 45 mins by nitrocefin hydrolysis assay.

Assay [2] addresses T2, Receptor-histidine kinase AgrC (Staphylococcus aureus, UniProt O07911).
T2 sequence (O07911 whole entry): T1 sequence (whole entry)
Description: Inhibition of AIP-stimulated quorum sensing system AgrC activation in Staphylococcus aureus RN10829 harboring P3:blaZ fusion assessed as reduction in beta-lactamse activity preincubated with organism followed by AIP addition measured after 45 mins by nitrocefin hydrolysis assay.

Turning to `CCCCCCC(=O)N[C@H]1CNC(=O)[C@H](CC(C)C)NC(=O)[C@H](C)NC(=O)[C@H](CC(C)C)NC(=O)[C@H](Cc2ccccc2)NC1=O`, the inhibition entry in assay [1] is “Active”. The IC50 in assay [2] is 19100 nM.

On to `CCCCCCC(=O)N[C@@H]1CNC(=O)[C@@H](CC(C)C)NC(=O)[C@@H](C)NC(=O)[C@@H](CCC(C)C)NC(=O)[C@@H](Cc2ccccc2)NC1=O`, for which the inhibition entry in assay [1] was “Active”. Further, the IC50 in assay [2] is 609 nM.

Consider `CC(=O)NCC(=O)NCC(=O)NCC(=O)N[C@H]1CNC(=O)[C@H](CC(C)C)NC(=O)[C@H](C)NC(=O)[C@H](CC(C)C)NC(=O)[C@H](Cc2ccccc2)NC1=O` (Ac-GGG[Dap]FLAL; lactam 4-C), for which, in assay [1], the inhibition result was “inactive”.

In the case of `CCCCCCC(=O)N[C@@H]1CNC(=O)[C@@H](CCC(C)C)NC(=O)[C@@H](C)NC(=O)[C@@H](CC(C)C)NC(=O)[C@@H](Cc2ccccc2)NC1=O`, the inhibition entry in assay [1] is “Active”. For the same molecule, the IC50 in assay [2] was 913 nM.

`CCCCCC(=O)N[C@@H]1CNC(=O)[C@@H](CC(C)C)NC(=O)[C@@H](C)NC(=O)[C@@H](CC(C)C)NC(=O)[C@@H](Cc2ccccc2)NC1=O`: the inhibition result in assay [1] was “Active”. Besides, the IC50 in assay [2] was 1430 nM.

Take `CCCCCCCC(=O)N[C@@H]1CNC(=O)[C@@H](CC(C)C)NC(=O)[C@@H](C)NC(=O)[C@@H](CC(C)C)NC(=O)[C@@H](Cc2ccccc2)NC1=O`: the inhibition entry in assay [1] was “Active”. In assay [2], the IC50 is 457 nM.

As to `CCCCCCC(=O)N[C@@H]1CNC(=O)[C@@H](CC(C)C)NC(=O)[C@@H](CC(C)C)NC(=O)[C@@H](CC(C)C)NC(=O)[C@@H](Cc2ccccc2)NC1=O`, the inhibition entry in assay [1] was “inactive”.

On to `CCCCCCC(=O)N[C@@H]1CNC(=O)[C@@H](CC(C)C)NC(=O)[C@@H](C)NC(=O)[C@@H](Cc2ccccc2)NC(=O)[C@@H](Cc2ccccc2)NC1=O`, for which the inhibition result in assay [1] was “Active”. Also, the IC50 in assay [2] is 739 nM.

On to `CCCCCCC(=O)N[C@@H]1CNC(=O)[C@@H](CC(C)C)NC(=O)CNC(=O)[C@@H](CC(C)C)NC(=O)[C@@H](Cc2ccccc2)NC1=O`, for which the inhibition entry in assay [1] is “inactive”.

For the molecule `CCCCCCC(=O)N[C@@H]1CNC(=O)[C@@H](CC(C)C)NC(=O)[C@@H](C)NC(=O)[C@@H](C)NC(=O)[C@@H](Cc2ccccc2)NC1=O`, the inhibition result in assay [1] is “Active”.

As to `CC(=O)N[C@H]1CNC(=O)[C@H](CC(C)C)NC(=O)[C@H](C)NC(=O)[C@H](CC(C)C)NC(=O)[C@H](Cc2ccccc2)NC1=O` (Ac-[Dap]FLAL; lactam 1-C), in assay [1], the inhibition result was “inactive”.

For the molecule `CCCCCCC(=O)N[C@@H]1CNC(=O)[C@@H](CC(C)C)NC(=O)[C@H](C)NC(=O)[C@H](CC(C)C)NC(=O)[C@@H](Cc2ccccc2)NC1=O`, the inhibition entry in assay [1] is “inactive”.

Regarding `CCCCCCC(=O)N[C@@H]1CNC(=O)[C@@H](CC(C)C)NC(=O)[C@@H](C)NC(=O)[C@@H](CC(C)C)NC(=O)[C@@H](Cc2c[nH]c3ccccc23)NC1=O`, the inhibition entry in assay [1] is “inactive”.

With `CCCCCCC(=O)N[C@@H]1CNC(=O)[C@@H](Cc2ccccc2)NC(=O)[C@@H](C)NC(=O)[C@@H](CC(C)C)NC(=O)[C@@H](CC(C)C)NC1=O`, the inhibition entry in assay [1] was “inactive”.

`CCCCCCCCCCCC(=O)N[C@@H]1CNC(=O)[C@@H](CC(C)C)NC(=O)[C@@H](C)NC(=O)[C@@H](CC(C)C)NC(=O)[C@@H](Cc2ccccc2)NC1=O`: in assay [1], the inhibition entry was “Active”.

Take `CCCCCCC(=O)N[C@H]1CCNC(=O)[C@H](CC(C)C)NC(=O)[C@H](C)NC(=O)[C@H](CC(C)C)NC(=O)[C@H](Cc2ccccc2)NC1=O` (Heptanoyl-[Dab]FLAL; lactam 1-C): the inhibition result in assay [1] was “inactive”.

As to `COCCOCCOCC(=O)N[C@H]1CNC(=O)[C@H](CC(C)C)NC(=O)[C@H](C)NC(=O)[C@H](CC(C)C)NC(=O)[C@H](Cc2ccccc2)NC1=O` ({Decanoyl(3,6,9-trioxa)}-[Dap]FLAL; lactam 1-C), in assay [1], the inhibition entry was “inactive”.

Take `CCCCCCC(=O)N[C@H]1CCCNC(=O)[C@H](CC(C)C)NC(=O)[C@H](C)NC(=O)[C@H](CC(C)C)NC(=O)[C@H](Cc2ccccc2)NC1=O` (Heptanoyl-[Orn]FLAL; lactam 1-C): in assay [1], the inhibition entry is “inactive”.

As for `CCCCCCC(=O)N[C@@H]1CNC(=O)[C@@H](CC(C)C)NC(=O)[C@@H](C)NC(=O)[C@@H](CC(C)C)NC(=O)[C@@H](CCc2ccccc2)NC1=O`, the inhibition result in assay [1] is “inactive”.

Turning to `CCCCCCC(=O)N[C@@H]1CNC(=O)[C@@H](C)NC(=O)[C@@H](C)NC(=O)[C@@H](CC(C)C)NC(=O)[C@@H](Cc2ccccc2)NC1=O`, the inhibition entry in assay [1] was “Active”. Also, the IC50 in assay [2] was 69100 nM.

For `CCCCCCCCCC(=O)N[C@H]1CNC(=O)[C@H](CC(C)C)NC(=O)[C@H](C)NC(=O)[C@H](CC(C)C)NC(=O)[C@H](Cc2ccccc2)NC1=O` (Decanoyl-[Dap]FLAL; lactam 1-C), the inhibition result in assay [1] was “Active”.

For `CCCCCCC(=O)N[C@H]1CCCCNC(=O)[C@H](CC(C)C)NC(=O)[C@H](C)NC(=O)[C@H](CC(C)C)NC(=O)[C@H](Cc2ccccc2)NC1=O` (Heptanoyl-KFLAL; lactam 1-C), the inhibition entry in assay [1] is “inactive”.

Regarding `CCCCCCC(=O)N[C@@H]1CNC(=O)[C@@H](CC(C)C)NC(=O)[C@@H](C)NC(=O)[C@@H](CC(C)C)NC(=O)[C@@H](Cc2cccc3ccccc23)NC1=O`, the inhibition entry in assay [1] is “inactive”.

Consider `CCCCCCC(=O)N[C@@H]1CNC(=O)[C@@H](CC(C)C)NC(=O)[C@@H](C)NC(=O)[C@@H](CC(C)C)NC(=O)[C@@H](Cc2ccccc2)NC1=O`, for which the inhibition result in assay [1] is “Active”. The IC50 in assay [2] was 622 nM.

As for `CCCCCCC(=O)N[C@H]1CNC(=O)[C@H](Cc2ccccc2)NC(=O)[C@H](C)NC(=O)[C@H](CC(C)C)NC(=O)[C@H](CC(C)C)NC1=O`, in assay [1], the inhibition entry is “Active”.

On to `CCCCCCC(=O)N[C@@H]1CNC(=O)[C@@H](CC(C)C)NC(=O)[C@@H](C)NC(=O)[C@@H](CC(C)C)NC(=O)[C@@H](C)NC1=O`, for which the inhibition result in assay [1] is “Active”.

For `CCCCCCC(=O)N[C@H]1CNC(=O)[C@H](CC(C)C)NC(=O)[C@@H](C)NC(=O)[C@@H](CC(C)C)NC(=O)[C@H](Cc2ccccc2)NC1=O`, the inhibition entry in assay [1] is “inactive”.

What is called IC50 is the concentration needed to halve the response being measured.
